Measured values published in patent US10760052B2, “Method of inhibiting tau phosphorylation” (priority 2012, dated 2020).

How the values were obtained:
[1] = test system: NFT and Aβ42 aggregates; assay: Immunohistochemistry of NFT and Aβ42 aggregates in slice cultures; assay type: cell-based, rat; conditions: slice cultures incubated with Aβ42
Description: For immunohistochemistry, additional slices were removed and fixed in 4% paraformaldehyde in PBS at 4° C.
(§1) One section was immunostained with anti-NFT or -PHF.
Specimens were examined using a Nikon FXA microscope with a Princeton Instruments CCD camera and recorded digitally.
(§2) The correlations between the amount of NFT/PHF immunoreactivity and Aβ42-positive material accumulated within mature neurons were also determined.

[2] = test system: NFT and Aβ42 aggregates; assay: ICV Aβ42 infusion mouse model: immunohistochemistry of NFT and Aβ42 aggregates; assay type: in vivo; conditions: 10 mg/kg twice daily
Description: as §1
Brain tissues were fixed at 4° C. in 0.15 M phosphate-buffered 10% formalin, pH 7.4 for 2 weeks, paraffin embedded, serially sectioned at 5 μm, and processed for brightfield immunohistochemistry as described. The […] but not Aβ42-1. Specimens were examined using a Nikon FXA microscope with a Princeton Instruments CCD camera and recorded digitally.
as §2

[3] = test system: α7nAChR; assay type: cell-based, human; conditions: AD and Aβ42-treated control brain slices
[4] = test system: α7nAChR; conditions: mouse, in vivo
[5] = test system: NMDAR; assay: ICV Aβ42 infusion mouse model: NMDAR signaling molecules; assay type: in vivo; conditions: 10 mg/kg twice daily
Description: NMDAR signaling and their interaction with synaptic anchoring protein, PSD-95 were compared in synaptosomes from treated mice. NMDAR activation and signaling was initiated by incubation of 6 slices with either 0.3 mM Mg^2+ containing KR (LMKR; basal) or LMKR containing 10 μM NMDA and 1 μM glycine at 37° C. for 30 minutes.
Ligand stimulation was terminated by the addition of 1 ml of ice-cold Ca^2+-free K-R containing mixture of protein phosphatase inhibitors, 0.5 mM EGTA and 0.1 mM EDTA. After harvesting, tissues were briefly centrifuged and homogenized in 0.25 ml of ice-cold immunoprecipitation buffer. The homogenates were centrifuged at 1000×g for 5 minutes (4° C.) and the supernatant (post-mitochondrial fraction) was sonicated for 10 seconds on ice.
The resultant lysates were cleared by centrifugation at 50,000×g for 5 minutes and diluted with 0.75 ml of immunoprecipitation buffer. Protein concentrations were measured by Bradford method (Bio-Rad).
To determine the NMDARs association with PSD-95 as well as NMDAR signaling, the levels of NMDAR subunits, PSD-95 and NMDAR-associated signaling molecules were measured in anti-NR1 immunoprecipitates. In these studies, brain tissue lysates (100 μg) were immunoprecipitated overnight (about 18 hours) at 4° C. with 2 μg of immobilized anti-NR1 onto covalently conjugated protein A-agarose beads (Pierce-ENDOGEN). […]

[6] = test system: voltage-gated calcium channel-mediated Ca2+ influx; assay type: cell-based, human; conditions: postmortem AD tissue; 1 nM
[7] = target: FLNA pentamer VAKGL of SEQ ID NO: 1 (Homo sapiens, UniProt P21333); assay: [3H]NLX displacement from biotinylated VAKGL peptide; conditions: Bn-VAKGL peptide; single IC50; N=4; read-out: IC50, inhibition of [3H]NLX binding
Description: Nonspecific binding was defined by 1 mM NTX. The reaction was terminated by addition of 1 ml of ice-cold binding medium. The [^3H]NLX-bound Bn-VAKGL was trapped by incubation with […] NeutrAvidin®-agarose (Thermo), followed by centrifugation. Following two 1.5 ml washes with PBS, the bound [^3H]NLX was determined using scintillation spectrometry. […] N=4.

[8] = test system: α7nAChR (Aβ42-α7nAChR interaction); assay: Aβ42 affinity for α7nAChR in biotinylated synaptic membranes from postmortem frontal cortices; assay type: binding, human
Source text: FIG. 27 in two panels illustrates that Compound C0105 reduces affinity of the Aβ42-α7nAChR interaction. […] Data are means±SEM. n=11 for postmortem control tissue; n=6 for SK-N-MC cells.

[9] = test system: Aβ42-α7nAChR complexes; assay: Postmortem human frontal cortex: Aβ42-α7nAChR complexes; assay type: cell-based; conditions: AD and Aβ42-treated control tissue; 0.1 and 1 nM
Description: Postmortem frontal cortex tissues were gradually thawed (from −80° C. to −20° C.) and were sliced using a chilled McIlwain tissue chopper (200 μm×200 μm×3 mm). […] Following two additional washes with 1 ml of ice-cold K-R, brain slices were suspended in 1 ml of K-R.
Incubation continued for 1 hour in the dark to minimize light destruction of the test agents. […] Reaction was terminated by the addition of 1.5 ml of ice-cold Ca^2+-free K-R. Tissue slices were harvested by a brief centrifugation and used as the tissue sources for various assays.

[10] = target: T1, α7nAChR-FLNA complex (Mus musculus, UniProt Q8BTM8); assay: ICV Aβ42 infusion mouse model: FLNA association with α7nAChR; assay type: in vivo; conditions: 10 mg/kg twice daily; prefrontal cortex and hippocampus
T1 construct: from tissue; host or cells: synaptosomes from prefrontal cortex and hippocampus of treated E129 mice
T1 sequence (Q8BTM8 2-2647, one chain of several): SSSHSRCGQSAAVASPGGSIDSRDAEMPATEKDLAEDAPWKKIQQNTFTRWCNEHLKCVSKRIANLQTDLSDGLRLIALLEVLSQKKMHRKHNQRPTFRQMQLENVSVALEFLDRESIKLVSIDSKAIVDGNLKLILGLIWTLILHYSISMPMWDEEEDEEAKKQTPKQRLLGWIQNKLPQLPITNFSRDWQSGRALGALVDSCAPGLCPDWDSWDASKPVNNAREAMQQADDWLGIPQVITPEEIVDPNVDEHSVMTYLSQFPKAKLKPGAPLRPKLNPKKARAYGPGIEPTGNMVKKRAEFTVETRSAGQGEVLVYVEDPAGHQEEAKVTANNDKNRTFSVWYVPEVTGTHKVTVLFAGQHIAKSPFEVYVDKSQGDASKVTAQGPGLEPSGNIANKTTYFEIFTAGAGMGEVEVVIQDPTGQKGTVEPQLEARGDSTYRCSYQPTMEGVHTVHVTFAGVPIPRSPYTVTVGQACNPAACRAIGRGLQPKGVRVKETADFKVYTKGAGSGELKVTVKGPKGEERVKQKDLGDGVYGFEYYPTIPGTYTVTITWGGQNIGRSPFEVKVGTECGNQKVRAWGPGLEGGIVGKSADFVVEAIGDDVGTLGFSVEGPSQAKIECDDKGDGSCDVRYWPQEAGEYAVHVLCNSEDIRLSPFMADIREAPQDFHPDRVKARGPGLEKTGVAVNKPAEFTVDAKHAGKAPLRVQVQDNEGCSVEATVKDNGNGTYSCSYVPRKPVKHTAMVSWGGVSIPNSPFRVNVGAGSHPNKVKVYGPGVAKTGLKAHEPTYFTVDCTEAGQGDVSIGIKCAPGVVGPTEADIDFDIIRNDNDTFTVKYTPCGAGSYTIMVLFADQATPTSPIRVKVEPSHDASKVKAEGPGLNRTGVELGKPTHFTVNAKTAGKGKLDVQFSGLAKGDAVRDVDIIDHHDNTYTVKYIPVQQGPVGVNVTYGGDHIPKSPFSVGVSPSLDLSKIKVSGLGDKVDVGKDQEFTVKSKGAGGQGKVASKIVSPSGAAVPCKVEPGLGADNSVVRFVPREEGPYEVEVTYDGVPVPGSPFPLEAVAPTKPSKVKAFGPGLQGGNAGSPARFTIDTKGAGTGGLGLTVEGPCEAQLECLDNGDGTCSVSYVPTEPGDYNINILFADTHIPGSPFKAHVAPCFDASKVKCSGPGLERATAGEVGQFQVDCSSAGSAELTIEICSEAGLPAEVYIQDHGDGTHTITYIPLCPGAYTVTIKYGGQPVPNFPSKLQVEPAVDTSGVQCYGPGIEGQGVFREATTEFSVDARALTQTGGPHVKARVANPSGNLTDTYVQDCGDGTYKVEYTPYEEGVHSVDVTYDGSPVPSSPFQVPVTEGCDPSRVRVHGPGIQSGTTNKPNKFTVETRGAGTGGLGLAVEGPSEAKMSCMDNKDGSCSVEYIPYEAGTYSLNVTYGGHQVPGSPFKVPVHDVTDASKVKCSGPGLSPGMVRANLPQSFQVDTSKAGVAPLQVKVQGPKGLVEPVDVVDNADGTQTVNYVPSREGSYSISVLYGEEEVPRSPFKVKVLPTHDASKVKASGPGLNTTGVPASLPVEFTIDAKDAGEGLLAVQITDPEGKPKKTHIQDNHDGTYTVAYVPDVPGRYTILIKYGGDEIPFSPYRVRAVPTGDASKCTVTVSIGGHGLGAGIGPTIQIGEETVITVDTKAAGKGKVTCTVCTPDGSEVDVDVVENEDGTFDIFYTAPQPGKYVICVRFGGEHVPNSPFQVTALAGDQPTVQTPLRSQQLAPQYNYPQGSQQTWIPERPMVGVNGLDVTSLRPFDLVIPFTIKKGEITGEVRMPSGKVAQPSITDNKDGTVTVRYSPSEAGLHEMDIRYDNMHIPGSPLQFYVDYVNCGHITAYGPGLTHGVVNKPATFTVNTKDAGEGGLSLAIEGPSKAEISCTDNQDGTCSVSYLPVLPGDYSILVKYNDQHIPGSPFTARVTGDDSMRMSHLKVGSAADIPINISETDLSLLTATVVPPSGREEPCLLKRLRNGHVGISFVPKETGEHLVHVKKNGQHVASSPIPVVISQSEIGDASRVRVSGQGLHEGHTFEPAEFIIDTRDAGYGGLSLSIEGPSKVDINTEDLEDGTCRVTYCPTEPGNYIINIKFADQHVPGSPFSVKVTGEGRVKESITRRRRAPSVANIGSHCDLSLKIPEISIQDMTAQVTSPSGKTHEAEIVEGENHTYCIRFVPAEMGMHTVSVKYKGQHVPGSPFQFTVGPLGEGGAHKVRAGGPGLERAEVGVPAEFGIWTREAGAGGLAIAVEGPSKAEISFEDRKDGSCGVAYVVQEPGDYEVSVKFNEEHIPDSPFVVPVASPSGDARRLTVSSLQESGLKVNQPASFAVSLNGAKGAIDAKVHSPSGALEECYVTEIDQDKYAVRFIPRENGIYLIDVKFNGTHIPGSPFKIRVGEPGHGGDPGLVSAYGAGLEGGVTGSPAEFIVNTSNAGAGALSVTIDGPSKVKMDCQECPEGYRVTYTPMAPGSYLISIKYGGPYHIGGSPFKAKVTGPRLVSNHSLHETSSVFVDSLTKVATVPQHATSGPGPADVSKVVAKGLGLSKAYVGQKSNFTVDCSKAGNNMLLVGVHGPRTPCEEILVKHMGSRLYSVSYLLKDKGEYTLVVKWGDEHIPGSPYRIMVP
Description: . The anti-FLNA immunocomplexes were obtained by centrifugation, washed and dissociated using antigen elution buffer. […] The levels of FLNA-associated α7nAChRs and TLR4s were assessed by Western blotting and the blot stripped and re-probed for FLNA for immunoprecipitation/loading control.

[11] = test system: tau protein phosphorylated at S202, T231 and T181; assay: Aβ42-induced tau phosphorylation in rat frontal cortical synaptosomes; assay type: cell-based
Description: FIG. 4 in four panels as FIGS. 4A-4D, illustrates that FLNA-binding compounds reduce tau phosphorylation at all three phosphorylation sites. […] The three phosphoepitopes of tau were detected in immunoprecipitates using specific antibodies. […] Immunoprecipitates were determined by Western blotting (FIGS. 4A-4C) and quantified by densitometry (FIG. 4D).
(§3) FIG. 42, also in two panels, FIGS. 42A and 42B, illustrates that FLNA-binding compounds reduce tau phosphorylation at all three phosphorylation sites using the compounds and concentrations of FIG. 41 using immunoprecipitation and Western blotting. […] The three phosphoepitopes of tau were detected in immunoprecipitates using specific antibodies.
as §3, with “44,” for “42,”, “FIG. 44A” for “FIGS. 42A”, “FIG. 44B,” for “42B,”, “43” for “41”, “antibodies. Aβ42 strongly promotes tau phosphorylation at all three sites.” for “antibodies.”
as §3, with “46,” for “42,”, “FIG. 46A” for “FIGS. 42A”, “FIG. 46B,” for “42B,”, “45” for “41”, “antibodies. Aβ42 strongly promotes tau phosphorylation at all three sites.” for “antibodies.”
The three primary phosphorylation sites on tau protein were examined for their phosphorylation levels compared to total tau protein content. Tau, phosphorylated at these three sites, is a constituent of NFTs. Consistent with effects on FLNA-α7nAChR association, and ERK2 activation, all of the FLNA-binding compounds assayed, with 10 minute pre-incubation, decreased Aβ42-induced phosphorylation of tau at all three sites (FIG. 4).

For `CN1CCC2(CC1)NCC(=O)N2Cc1ccccc1` [Compound C0105], the Aβ42 aggregates immunostaining [1] was “dramatically reduces”, the “NFT immunostaining (pTau)” value [1] was “dramatically reduces” and the “Amyloid deposits (IHC, FCX and HP)” value [2] was “prevents”. The “NFT formation (IHC, FCX and HP)” value [2] was “prevents”, the “Functioning of α7nAChR (calcium influx after receptor stimulation)” value [3] was “preserves functioning” and the “Aβ42-induced reduction in calcium influx after PNU282987” value [4] was “normalized”. The “Levels of NMDAR signaling molecules co-immunoprecipitating with NR-1” value [5] was “normalized”, the “Deficit in depolarization-induced calcium influx” value [6] was “attenuated the deficit” and the IC50 [7] was 0.00276 nM. The “Reduction of affinity of the Aβ42-α7nAChR interaction” value ([8]; FIG. 27: postmortem tissue and SK-N-MC cells) was 1,000-10,000 fold, the “Reduction of Aβ42 binding affinity for α7nAChR” value ([8]; postmortem control tissue, biotinylated synaptic membranes, n=11) was 1000 fold and the Kd ([8]; read-out: Aβ42 binding affinity for α7nAChR after Compound C0105 incubation, postmortem control tissue) was 16 nM. For the same compound, the Aβ42-α7nAChR complexes [9] was “reduces Aβ42-α7nAChR complexes”, the “Aβ42-induced increase in FLNA association with α7nAChR” value [10] was “reduced Aβ42-induced increases in FLNA associations with both α7nAChR and TLR4” and the “Aβ42-induced tau phosphorylation at S202, T231 and T181” value ([11]; 1 or 10 nM compound, simultaneously or 10-minute pretreatment, Aβ42 0.1 μM) was “reduced this phosphorylation at both concentrations”. For the same compound, the “Aβ42-induced phosphorylation of tau” value ([11]; simultaneous administration) was “reduced tau phosphorylation with simultaneous administration”.
